In paper PMC7047876, “Potent Chimeric Antimicrobial Derivatives of the Medicago truncatula NCR247 Symbiotic Peptide” (Frontiers in Microbiology, 2020):
In brackets after ≈: the same amount, converted by molar mass. Peptide text beside a SMILES is read from it.

What was measured:
Type in all cases: cell-based
[1] = system: Enterococcus faecalis (ATCC 29212); test: microbe, parasite or virus in culture; settings: ATCC 29212, 3 h, pH 7.4; read-out: Minimal bactericidal concentration (MBC) E. f.
From the text: (§1) The pathogenic bacterial strains obtained from the ATCC (United States) and NCTC (National Collection of Type Cultures – England) were the Gram-positive: Enterococcus faecalis (ATCC 29212), Staphylococcus aureus (HNCMO112011), Listeria monocytogenes (ATCC 19111) and the Gram-negative: Pseudomonas aeruginosa (ATCC 27853), Escherichia coli (ATCC 8739), Salmonella enterica (ATCC 13076), Klebsiella pneumoniae (NCTC 13440), Acinetobacter baumannii (ATCC 17978).
(§2) Overnight bacterial cultures grown in LB were diluted and grown to OD600 = 0.2–0.6 at 37°C with shaking. After harvesting and washing bacteria in PPB, the suspensions were adjusted to OD600 = 0.1 corresponding to ∼10^7 bacteria/mL. Antimicrobial activity of the peptides and the antibiotics was determined in PPB in 96 well microplates using 10 μL bacterial suspension and 90 μL of the 2-fold serial dilutions of peptides or antibiotics. Peptides were tested from 25 μM to 0.125 μM whereas the antibiotics; carbenicillin (Cb) from Duchefa Biochemie (Prod.No. C0109.0025) and levofloxacin (Lvx) from Sigma-Aldrich (Prod.No. 28266-10MG-F) from […] to 0.1 μM. The microplates were incubated for 3 h at 37°C with 250 rpm shaking and then 5 μl from each sample was placed on LB agar and the growth of bacteria was monitored after overnight incubation at 37°C. The lowest concentration of the antimicrobial agents, which completely eliminated viable bacteria was the minimal bactericidal concentration (MBC).

[2] = system: Klebsiella pneumoniae (NCTC 13440); test: microbe, parasite or virus in culture; settings: NCTC 13440, 3 h, pH 7.4; read-out: Minimal bactericidal concentration (MBC) K. p.
From the text: as §1, §2

[3] = system: Listeria monocytogenes (ATCC 19111); test: microbe, parasite or virus in culture; settings: ATCC 19111, 3 h, pH 7.4; read-out: Minimal bactericidal concentration (MBC) L. m.
From the text: as §1, §2

[4] = system: Escherichia coli (ATCC 8739); test: microbe, parasite or virus in culture; settings: ATCC 8739, 3 h, pH 7.4; read-out: Minimal bactericidal concentration (MBC) E. c.
From the text: as §1, §2

[5] = system: Acinetobacter baumannii (ATCC 17978); test: microbe, parasite or virus in culture; settings: ATCC 17978, 3 h, pH 7.4; read-out: Minimal bactericidal concentration (MBC) A. b.
From the text: as §1, §2

[6] = system: Staphylococcus aureus (HNCMO112011); test: microbe, parasite or virus in culture; settings: HNCMO112011, 3 h, pH 7.4; read-out: Minimal bactericidal concentration (MBC) S. a.
From the text: as §1, §2

[7] = system: Salmonella enterica (ATCC 13076); test: microbe, parasite or virus in culture; settings: ATCC 13076, 3 h, pH 7.4; read-out: Minimal bactericidal concentration (MBC) S. e.
From the text: as §1, §2

[8] = system: Pseudomonas aeruginosa (ATCC 27853); test: microbe, parasite or virus in culture; settings: ATCC 27853, 3 h, pH 7.4; read-out: Minimal bactericidal concentration (MBC) P. a.
From the text: as §1, §2

[9] = system: human melanoma A375 cells; test: XTT cell proliferation (cytotoxicity) assay; settings: 72 h treatment, OD450, three biological repeats
Method: The cytotoxicity of peptides X1-NCR247C and NCR247C-X2 was determined against the human melanoma A375 cells with XTT cell proliferation assay kit (PanReac Applichem) and a benchtop microplate reader (Multiskan RC, Thermo Labsystems) according to the manufacturers’ instructions. A375 human melanoma cell line was obtained from ATCC and maintained in DMEM (Lonza) supplemented by 10% FBS (Euroclone) in a humidified incubator at 37°C and 5% CO2. A375 cells were seeded to 96-well plates (4,000 cells/well) and treated with the peptides for 72 h. Cells without peptides served as negative control and the blank sample was the medium. Reduction of the tetrazolium salt XTT by the viable cells to the orange colored compounds of formazan was measured at OD450. The XTT assay was performed in three biological repeats.

Escherichia coli = system: Escherichia coli
From the text: as §1
(§3) Ca^2+ and Mg^2+ can inhibit the antimicrobial activity of cationic peptides, therefore the MBC and MIC values were also determined in MHB, which unlike PPB contains divalent cations and allows growth of bacteria. Bacteria were grown and prepared similarly except that bacteria were resuspended in MHB. 10 μl of bacteria OD600 = 0.1, supplemented with 45 μl MHB and 45 μl of 2-fold dilution series of peptides, were cultivated for 3 and 20 h at 37°C with shaking. Optical density of each sample was measured (Hidex Sense Microplate Reader with Plate Reader Software version 5064) and 5 μl was placed on LB agar plates after 3 and 20 h treatment. The minimal inhibitory concentration (MIC) corresponded to the lowest concentration, which inhibited growth.

Staphylococcus aureus = system: Staphylococcus aureus
From the text: as §1, §3

Acinetobacter baumannii = system: Acinetobacter baumannii
From the text: as §1, §3

CSCC[C@H](NC(=O)[C@H](CCCCN)NC(=O)[C@H](Cc1ccccc1)NC(=O)[C@H](CC(N)=O)NC(=O)[C@H](CC(C)C)NC(=O)[C@@H]1CCCN1C(=O)[C@@H](N)CCCNC(=N)N)C(=O)N[C@@H](CC(C)C)C(=O)N[C@@H](CCCNC(=N)N)C(=O)N[C@@H](Cc1ccccc1)C(=O)N[C@@H](Cc1c[nH]c2ccccc12)C(=O)NCC(=O)N[C@@H](CCC(N)=O)C(=O)N[C@@H](CCC(N)=O)C(=O)N[C@@H](CCC(N)=O)C(=O)N[C@@H](CS)C(=O)N[C@@H](CCCNC(=N)N)C(=O)N[C@@H](CCCNC(=N)N)C(=O)N1CCC[C@H]1C(=O)N[C@@H](CC(C)C)C(=O)N[C@@H](Cc1ccc(O)cc1)C(=O)N[C@@H](CS)C(=O)N[C@@H](CCCNC(=N)N)C(=O)N[C@@H](CCCNC(=N)N)C(=O)N[C@@H](CCCNC(=N)N)C(N)=O [D, X1-NCR247C] (H-RPLNFKMLRFWGQQQCRRPLYCRRR-NH2; N-terminus assumed)
MBC [1]: 6.3 µM (≈ 20.8 µg/mL) | MBC [2]: 12.5 µM (≈ 41.4 µg/mL) | MBC [3]: 3.1 µM (≈ 10.3 µg/mL) | MBC [4]: 3.1 µM (≈ 10.3 µg/mL) | MBC [5]: 3.1 µM (≈ 10.3 µg/mL) | MBC [6]: 3.1 µM (≈ 10.3 µg/mL) | MBC [7]: 1.6 µM (≈ 5.29 µg/mL) | MBC [8]: 3.1 µM (≈ 10.3 µg/mL) | Cytotoxicity / viability of A375 cells [9]: did not show differences | MBC in Mueller Hinton Broth, panel (A), E. c. (Escherichia coli; 3 h): 12.5 µM (≈ 41.4 µg/mL) | MBC in Mueller Hinton Broth, panel (B), E. c. (Escherichia coli; 20 h): 3.1 µM (≈ 10.3 µg/mL) | MIC in Mueller Hinton Broth, panel (C), E. c. (Escherichia coli; 20 h): 3.1 µM (≈ 10.3 µg/mL) | MBC in Mueller Hinton Broth, panel (A), S. a. (Staphylococcus aureus; 3 h): 25 µM (≈ 82.7 µg/mL) | MBC in Mueller Hinton Broth, panel (B), S. a. (Staphylococcus aureus; 20 h): 3.1 µM (≈ 10.3 µg/mL) | MIC in Mueller Hinton Broth, panel (C), S. a. (Staphylococcus aureus; 20 h): 3.1 µM (≈ 10.3 µg/mL) | MBC in Mueller Hinton Broth, panel (A), A. b. (Acinetobacter baumannii; 3 h): 6.3 µM (≈ 20.8 µg/mL) | MBC in Mueller Hinton Broth, panel (B), A. b. (Acinetobacter baumannii; 20 h): 3.1 µM (≈ 10.3 µg/mL) | MIC in Mueller Hinton Broth, panel (C), A. b. (Acinetobacter baumannii; 20 h): 3.1 µM (≈ 10.3 µg/mL)
